Measurements reported in PMC11369887 (RSC Advances, 2024).
Like-named read-outs stand apart in the source and are kept apart here.

Legend:
[1] = test system: leukemia (L-SR) cell line; assay: MTT cytotoxicity assay, L-SR; conditions: read-out: Cytotoxicity IC50 L-SR, 48 h
Experimental: (§1) The newly synthesized compounds were evaluated for their in vitro growth inhibition of three human tumor cell lines representing different tumor types, namely, breast adenocarcinoma (MCF-7), liver hepatocellular carcinoma (Hep3B) and leukemia-SR. […] The breast tumor cell line (MCF-7), hepatic tumor cell line (Hep3B) and leukemia-SR cell line were obtained from American Type Culture Collection. The cells were cultured using Dulbecco's modified Eagle's medium (DMEM) (Invitrogen/Life Technologies) supplemented with 10% fetal bovine serum (FBS) (Hyclone), 10 μg mL^−1 of insulin (Sigma), and 1% penicillin–streptomycin. […] For 24 hours before to the MTT experiment, plate cells (densities of 1.2–1.8 × 10 000 cells per well) were layered in a 96-well plate containing 100 μL of the tested chemical per well and 100 μL of full growth media.
(§2) The culture medium was transferred to a centrifuge tube. […] Then 2.0 to 3.0 mL of Trypsin EDTA solution was added to the flask, and the cells were observed using an inverted microscope until the cell layer became dispersed (usually within 5–15 min). After that, 6.0 to 8.0 mL of complete growth medium was added and the cells were aspirated by gently pipetting. The cell suspension was transferred to the centrifuge tube with the medium and cells from step 1 and centrifuged at approximately 125 g for 5–10 min. The supernatant was discarded. The cell pellet was re-suspended in a fresh growth medium. Appropriate aliquots of the cell suspension were added to new culture vessels.
(§3) For the best results, the cells in the log phase of growth should be employed and the final cell number should not exceed 10^6 cells per cm^2. Each test should include a blank containing a complete medium without cells. Cultures from the incubator were transferred into a laminar flow hood or other sterile work area. […] Reconstituted MTT was added in an amount equal to 10% of the culture medium volume. Cultures were returned to the incubator for 2–4 h depending on the cell type and maximum cell density. An incubation period of 2 h is generally adequate but may be lengthened for low cell densities or cells with lower metabolic activity. The incubation times should be consistent when making comparisons. […] Occasionally, especially in dense cultures, pipetting up and down may be required to completely dissolve the MTT formazan crystals. The absorbance was spectrophotometrically measured at a wavelength of 570 nm. The background absorbance of multiwell plates was measured at 690 nm and subtracted from the 450 nm measurement. Tests performed in multiwell plates might be read using an appropriate type of plate reader or the contents of individual wells might be transferred to appropriate size cuvettes for spectrophotometric measurement.

[2] = test system: human liver cancer (Hep3B) cell line; assay: MTT cytotoxicity assay, Hep3B; conditions: read-out: Cytotoxicity IC50 Hep3B, 48 h
Experimental: as §1, §2, §3

[3] = test system: human breast cancer (MCF-7) cell line; assay: MTT cytotoxicity assay, MCF-7; conditions: read-out: Cytotoxicity IC50 MCF-7
Experimental: as §1, §2, §3

[4] = MCF-7 cell line, MTT assay, 48 h

melting point [°C] | Molecule | IC50 ([1]; L-SR cell line, MTT assay) [µM] | IC50 ([2]; Hep3B cell line, MTT assay) [µM] | IC50 [3, 4] [µM] | IC50 ([1]; Homo sapiens) [µM] | IC50 ([2]; Homo sapiens, Hep3B) [µM] | IC50 ([3]; Homo sapiens, MCF7, 48 h) [µM]
> 300 | CC1COc2c(N3CCN(C)CC3)c(F)cc3c(=O)c(C(=O)NNC(N)=S)cn1c23 (stereo not shown) [Compound 10, 2-[(9-Fluoro-3-methyl-10-(4-methylpiperazin-1-yl)-7-oxo-2,3-dihydro-7H-[1,4]oxazino[2,3,4-ij]quinoline-6-carbonyl)]hydrazin-1-carbothioamide] | – | – | – | 66 ± 3.98 | 37.9 ± 1.76 | 95.4 ± 4.42
246 to 248 | CC1COc2c(N3CCN(C)CC3)c(F)cc3c(=O)c(C(=O)N4CCN(c5ccccc5)CC4)cn1c23 (stereo not shown) [Compound 13d, 9-Fluoro-3-methyl-10-(4-methylpiperazin-1-yl)-6-((4-phenylpiperazin-1-yl)carbonyl)-2,3-dihydro-7H-[1,4]oxazino[2,3,4-ij]quinolin-7-one] | – | – | – | 15.1 ± 0.91 | 24.5 ± 1.14 | 9.59 ± 0.44
138 to 140 | CC1COc2c(N3CCN(C)CC3)c(F)cc3c(=O)c(C(=O)NN4C(=O)c5ccccc5C4=O)cn1c23 (stereo not shown) [Compound 9, 9-Fluoro-3-methyl-10-(4-methylpiperazin-1-yl)-7-oxo-N-(1,3-dioxoisoindolin-2-yl)-2,3-dihydro-7H-[1,4]oxazino[2,3,4-ij]quinoline-6-carboxamide] | – | – | – | 23.4 ± 1.41 | 42.2 ± 1.96 | 19.3 ± 0.9
235 to 237 | CC1COc2c(N3CCN(C)CC3)c(F)cc3c(=O)c(C(=O)N4CCOCC4)cn1c23 (stereo not shown) [Compound 13b, 9-Fluoro-3-methyl-10-(4-methylpiperazin-1-yl)-6-((morpholin-4-yl)carbonyl)-2,3-dihydro-7H-[1,4]oxazino[2,3,4-ij]quinolin-7-one] | – | – | – | 18.3 ± 1.11 | 11.2 ± 0.52 | 26.8 ± 1.24

Further lines, the molecule ahead of its results:

Molecule | melting point [°C] | IC50 ([1]; L-SR cell line, MTT assay) [µM] | IC50 ([2]; Hep3B cell line, MTT assay) [µM] | IC50 [3, 4] [µM] | IC50 ([1]; Homo sapiens) [µM] | IC50 ([2]; Homo sapiens, Hep3B) [µM] | IC50 ([3]; Homo sapiens, MCF7, 48 h) [µM]
2-[(9-Fluoro-3-methyl-10-(4-methylpiperazin-1-yl)-7-oxo-2,3-dihydro-7H-[1,4]oxazino[2,3,4-ij]quinoline-6-carbonyl)]N-(4-methoxybenzylidene)hydrazine-1-carbothioamide [Compound 11b] | – | 40.3 ± 2.43 | 14.6 ± 0.67 | 15.5 ± 0.72 | – | – | –
CC1COc2c(N3CCN(C)CC3)c(F)cc3c(=O)c(C(=O)NN=C4C(=O)Nc5ccccc54)cn1c23 (stereo not shown) [Compound 4a, 9-Fluoro-3-methyl-10-(4-methylpiperazin-1-yl)-7-oxo-N′-(2-oxoindolin-3-ylidene)-2,3-dihydro-7H-[1,4]oxazino[2,3,4-ij]quinoline-6-carbohydrazide] | > 300 | – | – | – | 49.6 ± 2.99 | 18.7 ± 0.87 | 39.1 ± 1.81
N-(1-(3,4-Dimethoxyphenyl)ethylidene)-2-[(9-fluoro-3-methyl-10-(4-methylpiperazin-1-yl)-7-oxo-2,3-dihydro-7H-[1,4]oxazino[2,3,4-ij]quinoline-6-carbonyl)]hydrazine-1-carbothioamide [Compound 12b] | – | 34.2 ± 2.06 | 17.6 ± 0.81 | 5.21 ± 0.24 | – | – | –
CC1COc2c(N3CCN(C)CC3)c(F)cc3c(=O)c(C(=O)NN=Cc4ccc(F)cc4)cn1c23 (stereo not shown) [Compound 3b, 9-Fluoro-N′-(4-fluorobenzylidene)-3-methyl-10-(4-methylpiperazin-1-yl)-7-oxo-2,3-dihydro-7H-[1,4]oxazino[2,3,4-ij]quinoline-6-carbohydrazide] | 266 to 268 | – | – | – | 5.64 ± 0.27 | 12 ± 0.39 | 63 ± 2.8
CC1COc2c(N3CCN(C)CC3)c(F)cc3c(=O)c(C(=O)NN=Cc4ccc(Cl)cc4)cn1c23 (stereo not shown) [Compound 3a, N′-(4-Chlorobenzylidene)-9-fluoro-3-methyl-10-(4-methylpiperazin-1-yl)-7-oxo-2,3-dihydro-7H-[1,4]oxazino[2,3,4-ij]quinoline-6-carbohydrazide] | 260 to 262 | – | – | – | 2.75 ± 0.07 | 24.7 ± 0.81 | 24.8 ± 1.61
2-[(9-Fluoro-3-methyl-10-(4-methylpiperazin-1-yl)-7-oxo-2,3-dihydro-7H-[1,4]oxazino[2,3,4-ij]quinoline-6-carbonyl)]-N-(1-(4-methoxyphenyl)ethylidene)hydrazine-1-carbothioamide [Compound 12a] | – | 23.8 ± 1.43 | 23.6 ± 1.09 | 45.4 ± 2.1 | – | – | –
CC1COc2c(N3CCN(C)CC3)c(F)cc3c(=O)c(C(=O)NN=C4C(=O)Nc5ccc(Br)cc54)cn1c23 (stereo not shown) [Compound 4b, N′-(5-Bromo-2-oxoindolin-3-ylidene)-9-fluoro-3-methyl-10-(4-methylpiperazin-1-yl)-7-oxo-2,3-dihydro-7H-[1,4]oxazino[2,3,4-ij]quinoline-6-carbohydrazide] | > 300 | – | – | – | 10.9 ± 0.66 | 8.79 ± 0.41 | 5.59 ± 0.26
CC1COc2c(N3CCN(C)CC3)c(F)cc3c(=O)c(C(=O)N4NC(=O)CC4=O)cn1c23 (stereo not shown) [Compound 8, 9-Fluoro-6-((3,5-dioxopyrazolidine-1-yl)carbonyl)-3-methyl-10-(4-methylpiperazin-1-yl)-2,3-dihydro-7H-[1,4]oxazino[2,3,4-ij]quinolin-7-one] | 228 to 230 | – | – | – | 5.49 ± 0.33 | 7.69 ± 0.36 | 3.51 ± 0.16
N-(4-Chlorobenzylidene)-2-[(9-fluoro-3-methyl-10-(4-methylpiperazin-1-yl)-7-oxo-2,3-dihydro-7H-[1,4]oxazino[2,3,4-ij]quinoline-6-carbonyl)]hydrazine-1-carbothioamide [Compound 11a] | – | 19.9 ± 1.2 | 80.2 ± 3.71 | 54.5 ± 2.52 | – | – | –
CC1COc2c(N3CCN(C)CC3)c(F)cc3c(=O)c(C(=O)NN=C4C(=O)Nc5ccc(Cl)cc54)cn1c23 (stereo not shown) [Compound 4c, N′-(5-Chloro-2-oxoindolin-3-ylidene)-9-fluoro-3-methyl-10-(4 methylpiperazin-1-yl)-7-oxo-2,3-dihydro-7H-[1,4]oxazino[2,3,4-ij]quinoline-6-carbohydrazide] | > 300 | – | – | – | 4.32 ± 0.26 | 36.3 ± 1.68 | 15.8 ± 0.76
